Experimental data: ChEMBL document CHEMBL1201862, “PubChem BioAssay data set” (2004)
Active and inactive are the calls of the source.

Tests used:
HEK293 = test: inhibitors of LMP1-driven NF-kB reporter, dose response, cell-based, HEK293, luciferase, cherry-pick (AID 588343); assay type: functional; settings: Homo sapiens
[1] = molecular target: T1, Latent membrane protein 1 (Human herpesvirus 4 (strain B95-8), UniProt P03230); test: TES1-eGFP NF-kB reporter inhibition versus Tet-On dsRED, dose response, selectivity assay for LMP1 NF-kB inhibitor project, imaging, HEK293T, dual-color eGFP/dsRED, cherry-picks (AID 588398); assay type: functional, cell-based
T1 sequence (P03230 whole entry): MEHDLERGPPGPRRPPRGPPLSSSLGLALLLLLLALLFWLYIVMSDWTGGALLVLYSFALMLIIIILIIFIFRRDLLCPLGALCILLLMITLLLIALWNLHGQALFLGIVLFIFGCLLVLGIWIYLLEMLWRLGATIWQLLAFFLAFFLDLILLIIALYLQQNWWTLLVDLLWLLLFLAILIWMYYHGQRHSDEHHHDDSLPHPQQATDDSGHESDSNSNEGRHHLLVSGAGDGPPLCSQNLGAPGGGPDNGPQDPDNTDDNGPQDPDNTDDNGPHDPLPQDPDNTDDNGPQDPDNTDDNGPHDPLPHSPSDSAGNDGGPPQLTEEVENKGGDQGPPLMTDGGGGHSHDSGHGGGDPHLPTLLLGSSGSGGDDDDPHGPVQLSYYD

[2] = molecular target: Endoplasmic reticulum aminopeptidase 1 (Homo sapiens, UniProt Q9NZ08); test: ERAP1 aminopeptidase inhibitors, dose response, biochemical, cherry-pick, set 2, plate reader (AID 743314)
[3] = molecular target: Fructose-bisphosphate aldolase (Mycobacterium tuberculosis, UniProt P9WQA3); test: Fluorescence-based biochemical high throughput dose response assay for inhibitors of the fructose-bisphosphate aldolase (FBA) of M. tuberculosis.; assay type: functional
[4] = T. cruzi intracellular amastigote growth inhibition, dose response, imaging, CA-I/72 strain, bovine embryo skeletal muscle, dry powder (AID 651885); assay type: functional, cell-based
[5] = molecular target: T2, Oxysterols receptor LXR-beta (Homo sapiens, UniProt P55055); assay type: functional, cell-based
T2 sequence (P55055 whole entry): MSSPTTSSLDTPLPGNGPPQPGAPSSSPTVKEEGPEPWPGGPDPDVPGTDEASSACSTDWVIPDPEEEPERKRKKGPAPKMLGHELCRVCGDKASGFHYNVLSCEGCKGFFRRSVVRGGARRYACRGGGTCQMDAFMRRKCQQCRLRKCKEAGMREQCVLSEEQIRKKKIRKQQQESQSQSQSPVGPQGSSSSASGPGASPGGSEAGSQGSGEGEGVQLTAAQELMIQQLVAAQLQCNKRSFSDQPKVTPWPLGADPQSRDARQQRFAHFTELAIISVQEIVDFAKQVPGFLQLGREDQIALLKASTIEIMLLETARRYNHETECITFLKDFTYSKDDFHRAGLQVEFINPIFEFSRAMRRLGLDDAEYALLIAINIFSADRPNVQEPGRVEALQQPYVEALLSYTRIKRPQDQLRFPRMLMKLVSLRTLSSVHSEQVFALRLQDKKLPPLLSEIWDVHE

cells [6] = test: cells
Cytochrome P450 2C19 = Cytochrome P450 2C19 (Homo sapiens, UniProt P33261); test: Cytochrome panel assay with activity outcomes. Panel member name: p450-cyp2c19 Compounds with AC50 equal or less than 10 uM are considered active; assay type: functional; settings: read-out: AC50
Cytochrome P450 2C9 = Cytochrome P450 2C9 (Homo sapiens, UniProt P11712)
[7] = molecular target: FAD-linked sulfhydryl oxidase ALR (Homo sapiens, UniProt P55789); test: inhibitors of human ALR sulfhydryl oxidase, dose response, biochemical, H2O2 detection, luminescence, cherry-pick (AID 493248)
cells [8] = assay type: functional, cell-based
[9] = molecular target: T3, Nuclear receptor subfamily 0 group B member 1 (Homo sapiens, UniProt P51843); assay type: functional, cell-based;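 note: HEK293T cells transfected with SF-1 and DAX-1 plus StAR promoter luciferase reporter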
T3 sequence (P51843 whole entry): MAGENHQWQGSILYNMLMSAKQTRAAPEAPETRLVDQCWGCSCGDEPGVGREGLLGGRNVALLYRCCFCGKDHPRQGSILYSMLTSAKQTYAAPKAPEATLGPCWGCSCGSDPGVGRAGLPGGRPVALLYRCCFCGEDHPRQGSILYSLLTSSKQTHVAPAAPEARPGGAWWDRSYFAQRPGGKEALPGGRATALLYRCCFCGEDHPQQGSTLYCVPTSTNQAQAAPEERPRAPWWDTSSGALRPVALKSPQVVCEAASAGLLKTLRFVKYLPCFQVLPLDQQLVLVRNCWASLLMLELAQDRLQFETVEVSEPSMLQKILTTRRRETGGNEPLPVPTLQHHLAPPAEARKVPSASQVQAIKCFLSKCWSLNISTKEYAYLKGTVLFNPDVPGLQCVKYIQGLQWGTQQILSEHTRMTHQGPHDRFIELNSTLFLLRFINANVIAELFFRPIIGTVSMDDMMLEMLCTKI

[10] = molecular target: T2, Oxysterols receptor LXR-beta; assay type: functional, cell-based; remark: listed apart in the source
Paired box protein Pax-8 = Paired box protein Pax-8 (Homo sapiens, UniProt Q06710); test: inhibitors of PAX8-driven TPO luciferase reporter, dose response, RMG-I cells, cherry-pick (AID 687027); assay type: functional, cell-based;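 note: luciferase reporter driven by Pax8 target thyroperoxidase promoter measured by SteadyGlo luminescence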
[11] = NIH:OVCAR-3 ovarian cancer cell cytotoxicity, dose response, PAX8 inhibitor project, plate reader, dry powder samples (AID 743044); assay type: functional, cell-based
[12] = IGROV1 ovarian cancer cell cytotoxicity, dose response, PAX8 inhibitor project, plate reader, dry powder samples (AID 743043); assay type: functional, cell-based; settings: IGROV-1
[13] = non-specific cell cytotoxicity, dose response, cytotoxicity control for PAX8 inhibitor project, plate reader, dry powder samples (AID 743021); assay type: functional, cell-based

Sequence of Fructose-bisphosphate aldolase (P9WQA3 whole entry): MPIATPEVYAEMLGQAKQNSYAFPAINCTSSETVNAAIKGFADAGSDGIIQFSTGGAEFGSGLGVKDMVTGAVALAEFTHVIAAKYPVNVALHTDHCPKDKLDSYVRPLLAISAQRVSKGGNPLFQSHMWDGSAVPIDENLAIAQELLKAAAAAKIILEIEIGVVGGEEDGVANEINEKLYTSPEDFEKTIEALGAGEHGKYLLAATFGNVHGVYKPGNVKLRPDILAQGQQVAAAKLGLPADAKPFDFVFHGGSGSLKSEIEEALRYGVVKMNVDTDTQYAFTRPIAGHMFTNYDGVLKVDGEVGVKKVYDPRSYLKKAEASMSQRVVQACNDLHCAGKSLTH
Sequence of Endoplasmic reticulum aminopeptidase 1 (Q9NZ08 whole entry): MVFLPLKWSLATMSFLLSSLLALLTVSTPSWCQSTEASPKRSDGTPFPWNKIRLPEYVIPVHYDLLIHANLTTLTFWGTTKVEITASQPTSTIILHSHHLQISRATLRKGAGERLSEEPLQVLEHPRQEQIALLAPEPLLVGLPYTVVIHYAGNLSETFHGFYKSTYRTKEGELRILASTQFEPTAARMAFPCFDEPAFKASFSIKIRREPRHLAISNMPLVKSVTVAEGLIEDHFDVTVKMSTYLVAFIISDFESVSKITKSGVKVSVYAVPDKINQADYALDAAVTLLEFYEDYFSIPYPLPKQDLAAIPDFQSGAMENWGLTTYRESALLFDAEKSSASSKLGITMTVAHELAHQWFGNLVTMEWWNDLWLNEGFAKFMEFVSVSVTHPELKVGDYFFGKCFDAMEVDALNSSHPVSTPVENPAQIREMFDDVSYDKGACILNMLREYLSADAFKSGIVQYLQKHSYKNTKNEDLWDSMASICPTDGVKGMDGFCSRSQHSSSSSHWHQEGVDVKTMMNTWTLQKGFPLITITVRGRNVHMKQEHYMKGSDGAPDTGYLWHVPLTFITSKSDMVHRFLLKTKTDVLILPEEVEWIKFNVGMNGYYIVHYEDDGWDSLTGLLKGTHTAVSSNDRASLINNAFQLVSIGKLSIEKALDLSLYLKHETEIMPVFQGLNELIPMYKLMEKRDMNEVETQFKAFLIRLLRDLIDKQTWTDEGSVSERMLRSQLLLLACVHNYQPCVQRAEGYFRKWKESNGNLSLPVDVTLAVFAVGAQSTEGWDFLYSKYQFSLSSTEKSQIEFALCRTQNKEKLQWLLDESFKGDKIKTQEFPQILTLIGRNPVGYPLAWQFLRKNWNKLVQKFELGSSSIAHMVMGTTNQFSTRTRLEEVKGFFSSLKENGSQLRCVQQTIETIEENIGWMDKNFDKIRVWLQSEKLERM
Sequence of FAD-linked sulfhydryl oxidase ALR (P55789 whole entry): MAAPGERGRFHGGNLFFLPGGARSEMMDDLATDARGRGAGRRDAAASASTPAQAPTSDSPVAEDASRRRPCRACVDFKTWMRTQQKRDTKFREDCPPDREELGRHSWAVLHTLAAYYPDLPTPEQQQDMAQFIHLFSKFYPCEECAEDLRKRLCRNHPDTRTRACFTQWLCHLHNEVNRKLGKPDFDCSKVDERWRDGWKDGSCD
Sequence of Cytochrome P450 2C9 (P11712 whole entry): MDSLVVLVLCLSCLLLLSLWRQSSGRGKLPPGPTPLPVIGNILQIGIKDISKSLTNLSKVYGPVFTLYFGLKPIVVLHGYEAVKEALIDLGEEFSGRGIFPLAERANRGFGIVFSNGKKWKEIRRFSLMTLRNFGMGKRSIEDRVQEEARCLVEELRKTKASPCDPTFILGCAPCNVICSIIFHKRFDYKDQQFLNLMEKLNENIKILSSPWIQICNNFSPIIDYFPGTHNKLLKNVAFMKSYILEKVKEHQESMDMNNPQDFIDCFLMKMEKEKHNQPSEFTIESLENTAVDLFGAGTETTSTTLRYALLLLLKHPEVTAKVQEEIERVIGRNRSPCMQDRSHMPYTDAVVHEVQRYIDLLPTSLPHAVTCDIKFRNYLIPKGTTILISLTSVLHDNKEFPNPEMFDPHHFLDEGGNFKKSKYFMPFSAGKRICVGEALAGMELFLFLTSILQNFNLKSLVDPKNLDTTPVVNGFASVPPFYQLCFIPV
Sequence of Paired box protein Pax-8 (Q06710 whole entry): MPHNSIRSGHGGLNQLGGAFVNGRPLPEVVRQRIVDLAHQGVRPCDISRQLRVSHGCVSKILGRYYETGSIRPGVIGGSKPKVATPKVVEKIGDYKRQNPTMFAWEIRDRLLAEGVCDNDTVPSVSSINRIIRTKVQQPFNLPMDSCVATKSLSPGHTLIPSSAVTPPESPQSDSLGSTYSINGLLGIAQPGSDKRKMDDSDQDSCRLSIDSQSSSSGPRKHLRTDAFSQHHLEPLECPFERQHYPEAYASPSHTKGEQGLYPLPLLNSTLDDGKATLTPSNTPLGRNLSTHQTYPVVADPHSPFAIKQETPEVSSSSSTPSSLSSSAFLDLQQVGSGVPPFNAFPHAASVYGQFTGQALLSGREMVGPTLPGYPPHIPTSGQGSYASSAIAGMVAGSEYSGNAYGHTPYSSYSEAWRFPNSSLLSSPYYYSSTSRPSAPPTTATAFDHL
Sequence of Cytochrome P450 2C19 (P33261 whole entry): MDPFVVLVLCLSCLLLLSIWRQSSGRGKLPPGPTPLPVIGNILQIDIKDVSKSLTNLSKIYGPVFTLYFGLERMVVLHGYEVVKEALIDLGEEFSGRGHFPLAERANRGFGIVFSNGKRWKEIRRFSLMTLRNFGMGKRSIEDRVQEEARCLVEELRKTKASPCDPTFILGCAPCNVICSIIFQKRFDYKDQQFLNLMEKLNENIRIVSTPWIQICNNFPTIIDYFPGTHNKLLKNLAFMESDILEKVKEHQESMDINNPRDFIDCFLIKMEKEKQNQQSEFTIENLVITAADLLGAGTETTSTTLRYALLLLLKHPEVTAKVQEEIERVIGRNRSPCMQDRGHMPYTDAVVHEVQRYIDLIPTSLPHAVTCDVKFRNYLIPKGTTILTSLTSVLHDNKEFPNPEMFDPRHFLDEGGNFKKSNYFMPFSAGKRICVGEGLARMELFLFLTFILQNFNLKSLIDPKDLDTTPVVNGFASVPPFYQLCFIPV

With CCc1cc(=O)oc2c(CNCc3c(F)cccc3Cl)c(O)ccc12 as the compound, how does the AC50 (HEK293) read?
Its AC50 is 230 µM (active).

What about the AC50 [1] of the same compound?
Its AC50 is 54.9 µM (active).

And the AC50 [2]?
Its AC50 is 8.53 µM (active).

For O=C(NCCc1ccncc1)[C@@H]1N[C@@H]2c3ccc(/C=C/c4ccccc4)c(=O)n3C[C@@H]2[C@H]1CO, which AC50 [2] is on record?
The AC50 was 13 µM (active).

For CS(=O)(=O)NN1C(=O)c2ccccc2NC1c1ccccc1 (stereo unspecified), which IC50 [3] is on record?
Its IC50 is > 1.11 µM (active).

With CC(C)N1C[C@H](C)[C@@H](CN(C)Cc2ccccc2Cl)Oc2c(NC(=O)c3ccncc3)cccc2C1=O as the compound, how does the IC50 [4] read?
Its IC50 is 0.0201 µM (active).

What does the source list for O=c1c2ccccc2cnn1-c1ccc(Br)cc1?
EC50 [5]: > 67.5 µM (inactive); EC50 (cells [6]): > 67.5 µM (inactive)

Which AC50 (Cytochrome P450 2C19) does the source give for CCOC(=O)c1[nH]c2cc3c(cc2c1NC(=O)CN1CCc2ccccc2C1)OCO3 here?
The AC50 was 2.24 µM (inconclusive).

And the IC50 [3]?
The IC50 was 0.485 µM (active).

What about the AC50 (Cytochrome P450 2C9) of the same compound?
Its AC50 is 7.94 µM (inconclusive).

With COc1c(O)cc2oc(-c3ccc(O)cc3)cc(=O)c2c1O [HISPIDULIN] as the compound, how does the AC50 [7] read?
Its AC50 is 0.572 µM (active).

What about the IC50 (cells [8]) of the same compound?
Its IC50 is > 67.5 µM (inactive).

And the IC50 [9]?
The IC50 was > 0.834 µM (active).

Which EC50 [10] does the source give for COCCNC(=O)/C(C#N)=C/c1cc(C)n(-c2ccc(C)cc2)c1C here?
The EC50 was > 67.5 µM (inactive).

With Cc1ccc2c(Cl)c(C(=O)NC3CC3)sc2c1 as the compound, how does the IC50 (cells [8]) read?
The IC50 was > 67.5 µM (inactive).

What about the IC50 [9] of the same compound?
The IC50 was > 7.49 µM (active).

Which AC50 (Paired box protein Pax-8) does the source give for Cc1ccccc1-c1ccc([C@@H]2[C@@H]3CN(C(=O)Nc4cccc(F)c4)C[C@H]2N3)cc1 here?
The AC50 was 30.7 µM (active).

And the AC50 [11]?
The AC50 was 37.4 µM (active).

What about the AC50 [12] of the same compound?
Its AC50 is 21.8 µM (active).

And the AC50 [13]?
The AC50 was 22.9 µM (active).
